Measured values reported in ChEMBL document CHEMBL4627246, “Pyroglutamide-Based P2X7 Receptor Antagonists Targeting Inflammatory Bowel Disease” (J Med Chem, 2020).

How the values were obtained:
Assay type in all cases: cell-based
SK-MEL-2 = test: Cytotoxicity against human SK-MEL-2 cells assessed as effect on cell growth at 10 uM incubated for 48 hrs by sulforhodamine B assay; conditions: sk-mel-2, 48 h
UO-31 = test: Cytotoxicity against human UO31 cells assessed as effect on cell growth at 10 uM incubated for 48 hrs by sulforhodamine B assay; conditions: uo-31, 48 h
OVCAR-5 = test: Cytotoxicity against human OVCAR5 cells assessed as effect on cell growth at 10 uM incubated for 48 hrs by sulforhodamine B assay; conditions: ovcar-5, 48 h
PC-3 = test: Cytotoxicity against human PC3 cells assessed as effect on cell growth at 10 uM incubated for 48 hrs by sulforhodamine B assay; conditions: pc-3, 48 h
CAKI-1 = test: Growth inhibition of human Caki1 cells assessed as growth percentage at 10 uM incubated for 48 hrs by sulforhodamine B assay; conditions: caki-1, 48 h
HT-29 = test: Cytotoxicity against human HT-29 cells assessed as effect on cell growth at 10 uM incubated for 48 hrs by sulforhodamine B assay; conditions: ht-29, 48 h
HL-60(TB) = test: Cytotoxicity against human HL-60(TB) cells assessed as effect on cell growth at 10 uM incubated for 48 hrs by sulforhodamine B assay
EKVX = test: Cytotoxicity against human EKVX cells assessed as effect on cell growth at 10 uM incubated for 48 hrs by sulforhodamine B assay
A549 = test: Cytotoxicity against human A549/ATCC cells assessed as effect on cell growth at 10 uM incubated for 48 hrs by sulforhodamine B assay; conditions: a549, 48 h
RPMI-8226 = test: Cytotoxicity against human RPMI8226 cells assessed as effect on cell growth at 10 uM incubated for 48 hrs by sulforhodamine B assay; conditions: rpmi-8226, 48 h
SF-539 = test: Cytotoxicity against human SF539 cells assessed as effect on cell growth at 10 uM incubated for 48 hrs by sulforhodamine B assay; conditions: sf-539, 48 h
M14 = test: Cytotoxicity against human M14 cells assessed as effect on cell growth at 10 uM incubated for 48 hrs by sulforhodamine B assay; conditions: m14, 48 h
MDA-MB-231 = test: Cytotoxicity against human MDA-MB-231 cells assessed as effect on cell growth at 10 uM incubated for 48 hrs by sulforhodamine B assay; conditions: mda-mb-231, 48 h
OVCAR-8 = test: Cytotoxicity against human OVCAR8 cells assessed as effect on cell growth at 10 uM incubated for 48 hrs by sulforhodamine B assay; conditions: ovcar-8, 48 h
NCI-H23 = test: Cytotoxicity against human NCI-H23 cells assessed as effect on cell growth at 10 uM incubated for 48 hrs by sulforhodamine B assay; conditions: nci-h23, 48 h
UACC-257 = test: Cytotoxicity against human UACC257 cells assessed as effect on cell growth at 10 uM incubated for 48 hrs by sulforhodamine B assay; conditions: uacc-257, 48 h
A498 = test: Cytotoxicity against human A498 cells assessed as effect on cell growth at 10 uM incubated for 48 hrs by sulforhodamine B assay; conditions: a498, 48 h
T47D = test: Cytotoxicity against human T47D cells assessed as effect on cell growth at 10 uM incubated for 48 hrs by sulforhodamine B assay
SW-620 = test: Cytotoxicity against human SW620 cells assessed as effect on cell growth at 10 uM incubated for 48 hrs by sulforhodamine B assay; conditions: sw-620, 48 h
SK-MEL-28 = test: Cytotoxicity against human SK-MEL-28 cells assessed as effect on cell growth at 10 uM incubated for 48 hrs by sulforhodamine B assay; conditions: sk-mel-28, 48 h

Measured: Activity

O=C(NCc1ccc(Cl)cc1Cl)[C@@H]1CCC(=O)N1c1ccccc1
Non-Toxic: all assays above

COc1ccc(NC(=O)[C@@H]2C/C(=C\N(C)C)C(=O)N2)cc1
Non-Toxic: all assays above

CN1C(=O)C(C)(C)C[C@H]1C(=O)NCc1cccc(C(F)(F)F)c1Cl
Non-Toxic: all assays above

CCCCCCN1C(=O)[C@@H]2CCC(=O)N2C1N(C)C (stereo not given in full)
Non-Toxic: all assays above

Cc1ccc(NC(=O)[C@@H]2CCC(=O)N2c2ccccc2)cc1
Non-Toxic: all assays above

O=C(NCc1ccc(Cl)cc1Cl)[C@@H]1CCC(=O)N1c1cncs1
Non-Toxic: all assays above

O=C(NCc1ccc(Cl)cc1Cl)[C@@H]1COC(=O)N1c1cccs1
Non-Toxic: all assays above

O=C(NCC1CCCCC1)[C@@H]1CCC(=O)N1c1ccccc1
Non-Toxic: all assays above

COc1cc(CN/C=C2\C[C@@H](C(=O)NCc3ccc(Cl)cc3Cl)NC2=O)cc(OC)c1OC
Non-Toxic: all assays above

O=C(NCc1ccc(Cl)cc1Cl)c1ccccn1
Non-Toxic: all assays above

O=C(NCc1ccccc1Cl)[C@@H]1CCC(=O)N1Cc1ccc(Cl)cc1
Non-Toxic: all assays above

COc1ccccc1CN1C(=O)[C@@H]2C/C(=C\N(C)C)C(=O)N2C1N(C)C (stereo not given in full)
Non-Toxic: all assays above

N#Cc1ccc(N2C(=O)CC[C@H]2C(=O)NCc2ccc(Cl)cc2Cl)cc1
Non-Toxic: all assays above

O=C1N[C@H](C(=O)NCc2ccc(Cl)cc2Cl)C/C1=N\O (stereo in doubt)
Non-Toxic: all assays above
